The target in this test is T1, GABAB receptor (GABABR1a/GABABR2 heterodimer) (Homo sapiens, UniProt O75899+Q9UBS5).
T1 construct: expressed in transfected cells
The experiment in a line: [35S]-GTPγS binding assay, potency of PAM (GABA dose-response curves with and without test compound). Format: biochemical. To be noted: potency of the positive allosteric modulator; GABA dose-response in presence of test compound. The gist of the method:
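Membranes from human GABABR1a/GABABR2-expressing cell lines, one with a GABABR1a-Gαqi5mut fusion, were incubated at 30 °C for 45 min, pH 7.4, with 10 μM GDP and 0.53 nM [35S]-GTPγS. GABA (0.1 nM–1 mM) was added with or without PAM, and EC50 was obtained by 4-parameter logistic fit after filtration and scintillation counting.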
Background: GTPγS resists hydrolysis and so accumulates on activated G proteins.

T1 sequence (Q9UBS5 15-961 limits assumed): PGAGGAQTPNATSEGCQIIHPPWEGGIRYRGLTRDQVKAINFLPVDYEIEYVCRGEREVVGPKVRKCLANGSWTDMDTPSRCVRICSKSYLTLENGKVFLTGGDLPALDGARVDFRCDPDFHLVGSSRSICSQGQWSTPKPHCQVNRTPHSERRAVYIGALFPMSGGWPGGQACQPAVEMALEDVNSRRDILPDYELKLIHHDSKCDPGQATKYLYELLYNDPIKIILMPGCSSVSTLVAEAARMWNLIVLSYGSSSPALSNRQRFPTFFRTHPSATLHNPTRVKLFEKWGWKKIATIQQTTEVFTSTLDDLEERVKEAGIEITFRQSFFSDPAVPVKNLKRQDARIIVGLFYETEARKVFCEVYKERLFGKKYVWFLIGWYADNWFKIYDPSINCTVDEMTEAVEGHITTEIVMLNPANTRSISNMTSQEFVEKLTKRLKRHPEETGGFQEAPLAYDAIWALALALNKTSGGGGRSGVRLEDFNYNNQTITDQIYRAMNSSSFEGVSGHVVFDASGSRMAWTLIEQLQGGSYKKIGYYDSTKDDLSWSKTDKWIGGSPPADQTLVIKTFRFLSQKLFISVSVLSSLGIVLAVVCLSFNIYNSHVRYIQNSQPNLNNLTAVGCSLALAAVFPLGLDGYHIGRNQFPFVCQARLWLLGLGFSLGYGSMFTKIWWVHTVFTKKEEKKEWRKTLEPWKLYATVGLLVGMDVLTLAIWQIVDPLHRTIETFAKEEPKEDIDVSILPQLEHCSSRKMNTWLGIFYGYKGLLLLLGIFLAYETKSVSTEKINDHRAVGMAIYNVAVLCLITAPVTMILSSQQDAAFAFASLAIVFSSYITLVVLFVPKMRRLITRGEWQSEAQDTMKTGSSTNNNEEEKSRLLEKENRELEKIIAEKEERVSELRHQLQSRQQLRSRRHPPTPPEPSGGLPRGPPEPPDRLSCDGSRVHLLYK
T1 sequence (O75899 42-941): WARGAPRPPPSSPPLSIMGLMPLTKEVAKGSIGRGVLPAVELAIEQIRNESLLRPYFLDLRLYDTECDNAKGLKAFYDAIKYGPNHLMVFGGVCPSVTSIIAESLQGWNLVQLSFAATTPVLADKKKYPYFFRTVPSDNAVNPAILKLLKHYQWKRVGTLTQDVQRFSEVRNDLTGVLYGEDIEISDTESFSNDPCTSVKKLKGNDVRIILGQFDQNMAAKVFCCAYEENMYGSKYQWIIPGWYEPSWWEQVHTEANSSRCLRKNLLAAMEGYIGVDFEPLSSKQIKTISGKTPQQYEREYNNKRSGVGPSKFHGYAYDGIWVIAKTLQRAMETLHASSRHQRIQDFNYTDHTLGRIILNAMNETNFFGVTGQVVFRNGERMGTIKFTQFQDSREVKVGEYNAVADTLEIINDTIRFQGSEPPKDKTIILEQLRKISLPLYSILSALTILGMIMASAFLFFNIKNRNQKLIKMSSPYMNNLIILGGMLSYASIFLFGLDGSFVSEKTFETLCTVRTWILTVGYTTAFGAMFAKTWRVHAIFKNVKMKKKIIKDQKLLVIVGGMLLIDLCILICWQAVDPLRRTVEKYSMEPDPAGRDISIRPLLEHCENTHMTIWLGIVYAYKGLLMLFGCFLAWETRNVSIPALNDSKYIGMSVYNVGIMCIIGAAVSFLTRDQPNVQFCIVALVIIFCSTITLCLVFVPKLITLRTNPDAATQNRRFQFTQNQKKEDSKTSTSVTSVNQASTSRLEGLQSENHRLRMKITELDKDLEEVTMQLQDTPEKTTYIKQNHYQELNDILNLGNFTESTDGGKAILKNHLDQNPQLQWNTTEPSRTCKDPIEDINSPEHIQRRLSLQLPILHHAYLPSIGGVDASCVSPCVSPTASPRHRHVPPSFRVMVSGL

On to `CCCn1c(=O)n(Cc2ccc(Cl)cc2)c(=O)c2c1nc(N(CC)CC)n2C` [Example 89, 1-(4-chlorobenzyl)-8-(diethylamino)-7-methyl-3-propyl-3,7-dihydro-1H-purine-2,6-dione], for which the EC50 came to 1.8 µM.
Turning to `CCCn1c(=O)n(Cc2ccc(Cl)cc2)c(=O)c2c1nc(N(C)CCOC)n2C` [Example 91, 1-(4-chlorobenzyl)-8-[(2-methoxyethyl)(methyl)amino]-7-methyl-3-propyl-3,7-dihydro-1H-purine-2,6-dione], the EC50 was found to be 8.3 µM.
As for `CCCn1c(=O)n(Cc2ccc(Cl)cc2)c(=O)c2c1nc(N1CCOCC1)n2C` [Example 92, 1-(4-chlorobenzyl)-7-methyl-8-morpholin-4-yl-3-propyl-3,7-dihydro-1H-purine-2,6-dione], the EC50 is 7.1 µM.
To `CCCn1c(=O)n(Cc2ccc(Cl)cc2)c(=O)c2c1nc(N1CCC[C@H]1COC)n2C` [Example 93, 1-(4-chlorobenzyl)-8-[(2S)-2-(methoxymethyl)pyrrolidin-1-yl]-7-methyl-3-propyl-3,7-dihydro-1H-purine-2,6-dione] belongs 7.2 µM; to `CCCn1c(=O)n(Cc2ccc(Cl)cc2)c(=O)c2c1nc(N1CCC[C@H]1CN1CCCC1)n2C` [Example 94, 1-(4-chlorobenzyl)-7-methyl-3-propyl-8-[(2S)-2-(pyrrolidin-1-ylmethyl)pyrrolidin-1-yl]-3,7-dihydro-1H-purine-2,6-dione], 9 µM; to `CCCn1c(=O)n(Cc2ccc(Cl)cc2)c(=O)c2c1nc(Br)n2C` [Example 95, 8-bromo-1-(4-chlorobenzyl)-7-methyl-3-propyl-3,7-dihydro-1H-purine-2,6-dione], 4.5 µM.
Regarding `CCCn1c(=O)n(Cc2ccc(Cl)cc2)c(=O)c2c1nc(C(C)O)n2C` (stereo not shown) [Example 96, 1-(4-chlorobenzyl)-8-(1-hydroxyethyl)-7-methyl-3-propyl-3,7-dihydro-1H-purine-2,6-dione], the EC50 turned out to be 12.2 µM.

For orientation: EC50 means the concentration needed to bring the measured effect to its halfway point.

Values taken from patent publication US20090023704A1, “Novel Compounds 737” (ASTRAZENECA AB, priority 2007, published 2009).
